{"source": "patent US8097761B2", "about": "“Process for production of carotenoid” (JX Nippon Oil & Energy Corporation, priority 2006, dated 2012)", "assay": "Measurement of the concentration of astaxanthin dissolved at room temperature", "format": "physicochemical"}
{"smiles": "CC1=C(/C=C/C(C)=C/C=C/C(C)=C/C=C/C=C(C)/C=C/C=C(C)/C=C/C2=C(C)C(=O)[C@@H](O)CC2(C)C)C(C)(C)C[C@H](O)C1=O", "note": "[astaxanthin]", "values": [{"measurement": "Concentration dissolved", "setting": "solvent 1,4-dioxane (Ethers), room temperature", "result": "0.3 % (wt./wt.)"}, {"measurement": "Concentration dissolved", "setting": "solvent Acetone (Ketones), room temperature", "result": "0.02 % (wt./wt.)"}, {"measurement": "Concentration dissolved", "setting": "solvent Benzene (Hydrocarbons), room temperature", "result": "0.05 % (wt./wt.)"}, {"measurement": "Concentration dissolved", "setting": "solvent Chloroform (Halogens), room temperature", "result": "0.7 % (wt./wt.)"}, {"measurement": "Concentration dissolved", "setting": "solvent Cyclohexane (Hydrocarbons), room temperature", "result": "0.001 % (wt./wt.)"}, {"measurement": "Concentration dissolved", "setting": "solvent Cyclohexanone (Ketones), room temperature", "result": "0.2 % (wt./wt.)"}, {"measurement": "Concentration dissolved", "setting": "solvent Dichloromethane (Halogens), room temperature", "result": "2.3 % (wt./wt.)"}, {"measurement": "Concentration dissolved", "setting": "solvent Ethanol (Alcohols), room temperature", "result": "0.002 % (wt./wt.)"}, {"measurement": "Concentration dissolved", "setting": "solvent Hexane (Hydrocarbons), room temperature", "result": "0.003 % (wt./wt.)"}, {"measurement": "Concentration dissolved", "setting": "solvent Isopropanol (Alcohols), room temperature", "result": "0.002 % (wt./wt.)"}, {"measurement": "Concentration dissolved", "setting": "solvent Methanol (Alcohols), room temperature", "result": "0.003 % (wt./wt.)"}, {"measurement": "Concentration dissolved", "setting": "solvent Methylethylketone (Ketones), room temperature", "result": "0.03 % (wt./wt.)"}, {"measurement": "Concentration dissolved", "setting": "solvent Methylisobutylketone (Ketones), room temperature", "result": "0.02 % (wt./wt.)"}, {"measurement": "Concentration dissolved", "setting": "solvent Tetrahydrofuran (Ethers), room temperature", "result": "0.7 % (wt./wt.)"}, {"measurement": "Concentration dissolved", "setting": "solvent Toluene (Hydrocarbons), room temperature", "result": "0.03 % (wt./wt.)"}, {"measurement": "Concentration dissolved", "setting": "solvents other than halogen solvents, room temperature (summary of Table 1)", "result": "≤ 1", "unit": "%"}]}
